Measurements: patent publication US12172919B2, “Deconstruction of oilsand materials using ionic liquids” (ADJACENCY LABS CORP., priority 2017, dated 2024)
Read-outs that look alike come from different tables or passages of the source.

Legend:
[1] = In-situ extraction: IL injection through column packed with oil sand; settings: 100 g oil sand, 0.5 mL/min for 26 h, 24 h soak, 2 h re-injection
Protocol: 100 g dry oil sand was packed into a steel tube (1.5×30 cm). The packed steel tube then was mounted into apparatus to allow injection of desired fluid through the oil sand while collecting the effluent for subsequent analysis (FIG. 61). The injection of [C8NH3][Oleate] was continuous for 26 h at an injection rate of 0.5 mL/min, and the injection pressure was stabilized in the range 1940-2000 kPa. The breakthrough time was around 35 min. This indicates the pore volume was around 17.5 ml. The total amount of [C8NH3][Oleate] injected was around 783 ml. […] At the first 2.5 h of injection, the bitumen recovery is significant, and the fluid recovered is black. However, with continuing injection the black intensity decreases gradually till the effluent is clear [C8NH3][Oleate] after 26 h.
After 26 h of injection, the pump was stopped and the [C8NH3][Oleate]/Oil sand system in the steel column was left to soak for 24 h. Then injection was re-started with the same injection rate (0.5 mL/min) and the pressure stabilized at around 1850 kPa (similar level before soaking). The blackness of the fluid samples recovered during 2 h of injection post-soaking is not as intense as that during the same time for [C8NH3][Oleate] injection into the fresh oil sand. […]
After terminating the experiment, the bitumen still in the oil sand was quantified using Dean Stark.

[2] = Thermogravimetric analysis (TGA); format: physicochemical

octylammonium oleate [[C8NH3][Oleate]]
[C8NH3][Oleate] solubility (solvent: Acetonitrile): − (Insoluble (0.2 g in 3 mL solvent)) | [C8NH3][Oleate] solubility (solvent: Chloroform): + (Soluble (0.2 g in 0.5 mL solvent)) | [C8NH3][Oleate] solubility (solvent: DI water): − (Insoluble (0.2 g in 3 mL solvent)) | [C8NH3][Oleate] solubility (solvent: Dichlorobenzene): + (Soluble (0.2 g in 0.5 mL solvent)) | [C8NH3][Oleate] solubility (solvent: Dichloromethane): + (Soluble (0.2 g in 0.5 mL solvent)) | [C8NH3][Oleate] solubility (solvent: Dimethyl sulfoxide): − (Insoluble (0.2 g in 3 mL solvent)) | [C8NH3][Oleate] solubility (solvent: Hexane): + (Soluble (0.2 g in 0.5 mL solvent)) | [C8NH3][Oleate] solubility (solvent: Methanol): + (Soluble (0.2 g in 0.5 mL solvent)) | [C8NH3][Oleate] solubility (solvent: Xylene): + (Soluble (0.2 g in 0.5 mL solvent)) | bitumen remaining in oil sand by Dean Stark extraction, of the initial amount of bitumen [1]: 47.34% | thermal decomposition temperature [2]: 129 °C
